Tests used:
[1] = test system: Panel NCI-60 (60 carcinoma cell lines); experiment: Antiproliferative activity against human panel NCI-60 (60 carcinoma cell lines) assessed as total inhibition of cell growth incubated for 48 hrs by SRB assay; type: functional
COLO357 = experiment: Inhibition of cell growth in human COLO357 cells incubated for 72 hrs by MTT assay; type: functional, cell-based; settings: COLO357, time 72 hrs
K562 = experiment: Inhibition of cell growth in human K562 cells incubated for 72 hrs by MTT assay; type: functional, cell-based; settings: K562, time 72 hrs
[2] = test system: Panel NCI-60 (60 carcinoma cell lines); experiment: Antiproliferative activity against human panel NCI-60 (60 carcinoma cell lines) incubated for 48 hrs by SRB assay; type: functional
HL-60(TB) = experiment: Antiproliferative activity against human HL-60(TB) cells assessed as mean cell growth at 10 uM incubated for 48 hrs by SRB assay relative to control; type: functional
Panc02 = experiment: Inhibition of cell growth in mouse Panc02 cells incubated for 72 hrs by MTT assay; type: functional
MDA-MB-435 = experiment: Antiproliferative activity against human MDA-MB-435 cells assessed as mean cell growth at 10 uM incubated for 48 hrs by SRB assay relative to control; type: functional
SK-MEL-5 = experiment: Antiproliferative activity against human SK-MEL-5 cells assessed as mean cell growth at 10 uM incubated for 48 hrs by SRB assay relative to control; type: functional
NCI-H522 = experiment: Antiproliferative activity against human NCI-H522 cells assessed as mean cell growth at 10 uM incubated for 48 hrs by SRB assay relative to control; type: functional
UO-31 = experiment: Antiproliferative activity against human UO-31 cells assessed as mean cell growth at 10 uM incubated for 48 hrs by SRB assay relative to control; type: functional
DU-145 = experiment: Antiproliferative activity against human DU-145 cells assessed as mean cell growth at 10 uM incubated for 48 hrs by SRB assay relative to control; type: functional
SNB-75 = experiment: Antiproliferative activity against human SNB-75 cells assessed as mean cell growth at 10 uM incubated for 48 hrs by SRB assay relative to control; type: functional
A498 = experiment: Antiproliferative activity against human A498 cells assessed as mean cell growth at 10 uM incubated for 48 hrs by SRB assay relative to control; type: functional
NCI-H226 = experiment: Antiproliferative activity against human NCI-H226 cells assessed as mean cell growth at 10 uM incubated for 48 hrs by SRB assay relative to control; type: functional
SK-OV-3 = experiment: Antiproliferative activity against human SK-OV-3 cells assessed as mean cell growth at 10 uM incubated for 48 hrs by SRB assay relative to control; type: functional

Row | Structure (SMILES) | GI [1] | GI50 [2] | LC50 [2] | Activity (MDA-MB-435) | further results
1 | CCN1C(=O)N(CC)C2C1NN=c1s/c(=C\c3ccc(Br)cc3)c(=O)n12 (stereo unspecified) | >80.5 µM | 2570 nM | > 100000 nM | – | GI50 (COLO357): 80 nM; GI50 (K562): 80 nM; Cell growth relative to control (HL-60(TB)): 19%; GI50 (Panc02): 400 nM
2 | CCN1C(=O)N(CC)C2Nn3c(s/c(=C\c4ccccc4Br)c3=O)=NC21 (stereo unspecified) | >53.6 µM | 2430 nM | > 95000 nM | 22% | –
3 | CCN1C(=O)N(CC)C2Nn3c(s/c(=C\c4cccc([N+](=O)[O-])c4)c3=O)=NC21 (stereo unspecified) | – | – | – | 42% | –
4 | CCN1C(=O)N(CC)C2C1NN=c1s/c(=C\c3ccc([N+](=O)[O-])cc3)c(=O)n12 (stereo unspecified) | >63 µM | 1040 nM | > 98600 nM | – | GI50 (COLO357): 400 nM; GI50 (K562): 400 nM; Cell growth relative to control (HL-60(TB)): 26%; GI50 (Panc02): 400 nM
5 | COc1cccc2c1C(=O)c1c(O)c3c(c(O)c1C2=O)C[C@@](O)(C(=O)CO)C[C@@H]3O[C@H]1C[C@H](N)[C@H](O)[C@H](C)O1 [DOXORUBICIN] | – | – | – | – | Activity (SK-MEL-5): -20%
6 | CCN1C(=O)N(CC)C2Nn3c(s/c(=C\c4ccc(OC)cc4)c3=O)=NC21 (stereo unspecified) | – | – | – | 48% | –
7 | CCN1C(=O)N(CC)C2Nn3c(s/c(=C\c4ccc(F)cc4)c3=O)=NC21 (stereo unspecified) | – | – | – | – | Activity (NCI-H522): 101%
8 | CC[C@@]1(O)C(=O)OCc2c1cc1n(c2=O)Cc2cc3ccccc3nc2-1 [CAMPTOTHECIN] | – | – | – | – | Activity (SK-MEL-5): -27%
9 | CCN1C(=O)N(CC)C2Nn3c(s/c(=C\c4ccc(C(F)(F)F)cc4)c3=O)=NC21 (stereo unspecified) | – | – | – | – | Activity (UO-31): 100%
10 | CCN1C(=O)N(CC)C2Nn3c(s/c(=C\c4ccc(Cl)cc4Cl)c3=O)=NC21 (stereo unspecified) | – | – | – | 40% | –
11 | CC(=O)O[C@H]1C(=O)[C@@]2(C)[C@H]([C@H](OC(=O)c3ccccc3)[C@]3(O)C[C@H](OC(=O)[C@H](O)[C@@H](NC(=O)c4ccccc4)c4ccccc4)C(C)=C1C3(C)C)[C@]1(OC(C)=O)CO[C@@H]1C[C@@H]2O [PACLITAXEL] | – | – | – | – | Activity (DU-145): 15%
12 | CN1C(=O)N(C)C2Nn3c(s/c(=C\c4ccccc4F)c3=O)=NC21 (stereo unspecified) | – | – | – | 69% | –
13 | COc1cccc2c1C(=O)c1c(O)c3c(c(O)c1C2=O)C[C@@](O)(C(C)=O)C[C@@H]3O[C@H]1C[C@H](N)[C@H](O)[C@H](C)O1 [DAUNORUBICIN] | – | – | – | – | Activity (SK-MEL-5): -28%
14 | CN1C(=O)N(C)C2C1NN=c1s/c(=C\c3ccccc3)c(=O)n12 (stereo unspecified) | – | – | – | 41% | –
15 | CN1C(=O)N(C)C2C1NN=c1s/c(=C\c3ccc(Cl)cc3Cl)c(=O)n12 (stereo unspecified) | >78 µM | 650 nM | > 100000 nM | – | GI50 (COLO357): 80 nM; GI50 (K562): 80 nM; Cell growth relative to control (HL-60(TB)): 27%; GI50 (Panc02): 80 nM
16 | CCN1C(=O)N(CC)C2C1NN=c1s/c(=C\c3ccccc3F)c(=O)n12 (stereo unspecified) | >63.3 µM | 240 nM | > 95500 nM | – | GI50 (COLO357): 16 nM; GI50 (K562): 16 nM; Cell growth relative to control (HL-60(TB)): 18%; GI50 (Panc02): 3.2 nM
17 | CCN1C(=O)N(CC)C2C1NN=c1s/c(=C\c3ccccc3Br)c(=O)n12 (stereo unspecified) | >38.3 µM | 920 nM | > 87500 nM | – | Cell growth relative to control (HL-60(TB)): 21%
18 | COc1ccc(/C=c2\sc3n(c2=O)NC2C(N=3)N(C)C(=O)N2C)cc1 (stereo unspecified) | – | – | – | – | Activity (UO-31): 98%
19 | CCN1C(=O)N(CC)C2C1NN=c1s/c(=C\c3ccccc3)c(=O)n12 (stereo unspecified) | >84.6 µM | 2290 nM | > 97600 nM | – | GI50 (COLO357): 80 nM; GI50 (K562): 80 nM; Cell growth relative to control (HL-60(TB)): 19%; GI50 (Panc02): 80 nM
20 | CN1C(=O)N(C)C2C1NN=c1s/c(=C\c3ccc([N+](=O)[O-])cc3)c(=O)n12 (stereo unspecified) | – | – | – | 58% | –
21 | CCN1C(=O)N(CC)C2Nn3c(s/c(=C\c4ccc(Br)cc4)c3=O)=NC21 (stereo unspecified) | – | – | – | – | Activity (SNB-75): 95%

Row | Structure (SMILES) | GI [1] | GI50 [2] | LC50 [2] | Activity (MDA-MB-435) | further results
22 | CN1C(=O)N(C)C2Nn3c(s/c(=C\c4ccc(Br)cc4)c3=O)=NC21 (stereo unspecified) | – | – | – | – | Activity (UO-31): 98%
23 | CN1C(=O)N(C)C2C1NN=c1s/c(=C\c3ccc(F)cc3)c(=O)n12 (stereo unspecified) | >81.5 µM | 3470 nM | > 97600 nM | – | Cell growth relative to control (HL-60(TB)): 28%
24 | CN1C(=O)N(C)C2Nn3c(s/c(=C\c4ccc([N+](=O)[O-])cc4)c3=O)=NC21 (stereo unspecified) | – | – | – | – | Activity (A498): 99%
25 | CN1C(=O)N(C)C2Nn3c(s/c(=C\c4ccccc4)c3=O)=NC21 (stereo unspecified) | – | – | – | – | Activity (A498): 97%
26 | CN1C(=O)N(C)C2C1NN=c1s/c(=C\c3ccc(Br)cc3)c(=O)n12 (stereo unspecified) | – | – | – | 29% | –
27 | CN1C(=O)N(C)C2C1NN=c1s/c(=C\c3ccccc3F)c(=O)n12 (stereo unspecified) | >75.9 µM | 610 nM | > 97600 nM | – | GI50 (COLO357): 80 nM; GI50 (K562): 400 nM; Cell growth relative to control (HL-60(TB)): 21%; GI50 (Panc02): 16 nM
28 | CCN1C(=O)N(CC)C2C1NN=c1s/c(=C\c3cccc(F)c3)c(=O)n12 (stereo unspecified) | >81.2 µM | 2450 nM | > 99100 nM | 23% | GI50 (COLO357): 80 nM; GI50 (K562): 80 nM; GI50 (Panc02): 80 nM
29 | CN1C(=O)N(C)C2Nn3c(s/c(=C\c4cccc([N+](=O)[O-])c4)c3=O)=NC21 (stereo unspecified) | – | – | – | – | Activity (NCI-H226): 92%
30 | CCN1C(=O)N(CC)C2Nn3c(s/c(=C\c4cccc(F)c4)c3=O)=NC21 (stereo unspecified) | – | – | – | 65% | –
31 | CN1C(=O)N(C)C2Nn3c(s/c(=C\c4ccc(F)cc4)c3=O)=NC21 (stereo unspecified) | – | – | – | – | Activity (SK-OV-3): 103%
32 | CCN1C(=O)N(CC)C2C1NN=c1s/c(=C\c3ccc(OC)cc3)c(=O)n12 (stereo unspecified) | >71.4 µM | 2280 nM | > 95500 nM | – | GI50 (COLO357): 400 nM; GI50 (K562): 400 nM; Cell growth relative to control (HL-60(TB)): 19%; GI50 (Panc02): 16 nM
33 | CCN1C(=O)N(CC)C2C1NN=c1s/c(=C\c3ccc(C(F)(F)F)cc3)c(=O)n12 (stereo unspecified) | >65.4 µM | 610 nM | > 96600 nM | – | GI50 (COLO357): 2000 nM; GI50 (K562): 2000 nM; Cell growth relative to control (HL-60(TB)): 19%; GI50 (Panc02): 2000 nM
34 | CN1C(=O)N(C)C2C1NN=c1s/c(=C\c3cccc([N+](=O)[O-])c3)c(=O)n12 (stereo unspecified) | – | – | – | 88% | –
35 | CN1C(=O)N(C)C2Nn3c(s/c(=C\c4ccc(Cl)cc4Cl)c3=O)=NC21 (stereo unspecified) | – | – | – | 56% | –
36 | CCN1C(=O)N(CC)C2Nn3c(s/c(=C\c4ccccc4)c3=O)=NC21 (stereo unspecified) | – | – | – | 67% | –
37 | COc1ccc(/C=c2\sc3n(c2=O)C2C(NN=3)N(C)C(=O)N2C)cc1 (stereo unspecified) | >83.8 µM | 7320 nM | > 100000 nM | 24% | GI50 (COLO357): 400 nM; GI50 (K562): 2000 nM; GI50 (Panc02): 400 nM
38 | CCN1C(=O)N(CC)C2Nn3c(s/c(=C\c4ccccc4F)c3=O)=NC21 (stereo unspecified) | – | – | – | 41% | –
39 | CCN1C(=O)N(CC)C2C1NN=c1s/c(=C\c3ccc(F)cc3)c(=O)n12 (stereo unspecified) | >81.3 µM | 1680 nM | > 97800 nM | – | GI50 (COLO357): 80 nM; GI50 (K562): 400 nM; Cell growth relative to control (HL-60(TB)): 21%; GI50 (Panc02): 80 nM
40 | CN1C(=O)N(C)C2C1NN=c1s/c(=C\c3ccc(C(F)(F)F)cc3)c(=O)n12 (stereo unspecified) | >72.2 µM | 4210 nM | > 97700 nM | 26% | –
41 | CCN1C(=O)N(CC)C2C1NN=c1s/c(=C\c3cccc([N+](=O)[O-])c3)c(=O)n12 (stereo unspecified) | >83.1 µM | 2020 nM | > 98700 nM | – | GI50 (COLO357): 400 nM; GI50 (K562): 400 nM; Cell growth relative to control (HL-60(TB)): 23%; GI50 (Panc02): 80 nM
42 | CN1C(=O)N(C)C2Nn3c(s/c(=C\c4ccc(C(F)(F)F)cc4)c3=O)=NC21 (stereo unspecified) | – | – | – | – | Activity (SNB-75): 102%

— ChEMBL document CHEMBL5385976, “Recognition of arylmethylidene derivatives of imidazothiazolotriazinones as novel tubulin polymerization inhibitors” (RSC Med Chem, 2024)
